PMC7365463, “Oxfendazole mediates macrofilaricidal efficacy against the filarial nematode Litomosoides sigmodontis in vivo and inhibits Onchocerca spec. motility in vitro” (PLoS Neglected Tropical Diseases, 2020)
Like-named read-outs stand apart in the source and are kept apart here.

Assays:
[1] = tested on: Onchocerca gutturosa adult male worms; assay: O. gutturosa adult worm MTT/formazan viability assay; conditions: 120 h
Litomosoides sigmodontis [2] = tested on: Litomosoides sigmodontis; parameters: method as in Reddy 1983 (Ref. 15); conditions: L3 (mite), Mastomys natalensis, patent phase, necropsy 43 days p.t., ref Reddy 1983 (Ref. 15), cited from earlier work
Litomosoides sigmodontis [3] = assay: Patent L. sigmodontis infection in jirds (adult worms, microfilaremia, embryogenesis); conditions: jirds, SC 2 mg/kg QD for 5 days
[4] = tested on: Onchocerca lienalis microfilariae; assay: O. lienalis microfilariae 5-day motility assay; conditions: 120 h
[5] = tested on: Acanthocheilonema viteae / Brugia pahangi; parameters: method as in Court 1988 (Ref. 10); conditions: 15Ad A.v. (SC) +15Ad B.p. (IP), jirds, 5 days p.i., necropsy 5 weeks p.t., ref Court 1988 (Ref. 10), cited from earlier work
Brugia pahangi [6] = tested on: Brugia pahangi; parameters: method as in Devaney 1985 (Ref. 8); conditions: 50L3, balb/c, SC 10 or 50 mg/kg 5 cons. days, 4 days p.i., necropsy 3-4 weeks p.t.; ref Devaney 1985 (Ref. 8); cited from earlier work
Brugia pahangi [7] = tested on: Brugia pahangi; parameters: method as in Reddy 1983 (Ref. 15); conditions: L3 (SC), Mastomys natalensis, patent phase, necropsy 43 days p.t., ref Reddy 1983 (Ref. 15), cited from earlier work
Brugia pahangi [8] = conditions: cited from earlier work
[9] = tested on: Onchocerca gutturosa adult male worms; assay: O. gutturosa adult male worm 5-day motility assay

COC(=O)Nc1nc2cc(C(=O)c3ccc(F)cc3)ccc2[nH]1 [flubendazole]
MTT Reduction (%) ([1]; 1.25 x 10^-5 M): 2%
MTT Reduction (%) ([1]; 3.1 x 10^-6 M): 3%
MTT Reduction (%) ([1]; 5.0 x 10^-5 M): 20%
MTT Reduction (%) ([1]; 7.8 x 10^-7 M): 3%
Reduction of worm burden (Litomosoides sigmodontis [2]; SC 100mg/kg 5 cons. days): 100%
Reduction of worm burden (Litomosoides sigmodontis [2]; per os 150mg/kg 5 cons. days): 0%
adult worms at necropsy (Litomosoides sigmodontis [3]; necropsy 16 weeks post-treatment): no adult worms were recovered
clearance of microfilariae from peripheral blood (Litomosoides sigmodontis [3]; week 4 after treatment start): all microfilariae were cleared
activity against microfilariae compared to oxfendazole [4]: even less active
Reduction of worm burden ([5]; SC 50mg/kg 5 cons. days): 50%
Reduction of worm burden ([5]; SC 100mg/kg 5 cons. days): 100%
Reduction of worm burden (Brugia pahangi [6]): 100%
Reduction of worm burden (Brugia pahangi [7]; SC 100mg/kg 5 cons. days): 100%
Reduction of worm burden (Brugia pahangi [7]; per os 150mg/kg 5 cons. days): 20%
Reduction of worm burden (Brugia pahangi [8]; 15Ad (IP), jirds, SC 0.7mg/kg 5 cons. days, ref Denham 1979 (Ref. 4)): 40%
Reduction of worm burden (Brugia pahangi [8]; 15Ad (IP), jirds, SC 3.1mg/kg x1, ref Denham 1979 (Ref. 4)): 23%
Reduction of worm burden (Brugia pahangi [8]; 15Ad (IP), jirds, SC 5mg/kg 5 cons. days, 4 days p.i., necropsy 5 weeks p.t., ref Surin 1990 (Ref. 11)): 100%
Reduction of worm burden (Brugia pahangi [8]; 15Ad (IP), jirds, SC 6.3-12.5 mg/kg x1, ref Denham 1979 (Ref. 4)): 70-80%
Reduction of worm burden (Brugia pahangi [8]; 15Ad (IP), jirds, SC 10-50-100mg/ml 5 cons. days, ref Denham 1979 (Ref. 4)): 96-100%
Reduction of worm burden (Brugia pahangi [8]; 15Ad (IP), jirds, SC 25-200mg/kg x1, ref Denham 1979 (Ref. 4)): >98%
Reduction of worm burden (Brugia pahangi [8]; 50L3 (IP), jirds, SC 5mg/kg 5 cons. days, 70 days p.i., necropsy 5 weeks p.t., ref Surin 1990 (Ref. 11)): 98.5%
Reduction of worm burden (Brugia pahangi [8]; 50L3 (IP), jirds, SC 25mg/kg 5 cons. days, 70 days p.i., necropsy 5 weeks p.t., ref Surin 1990 (Ref. 11)): 100%
Reduction of worm burden (Brugia pahangi [8]; 50L3 (IP), jirds, SC 25mg/kg x1, prepatent phase, necropsy 3-9 days p.t., ref Denham 1979 (Ref. 4)): no reduction
Reduction of worm burden (Brugia pahangi [8]; 50L3 (IP), jirds, SC 25mg/kg x1, prepatent phase, necropsy 12-24 days p.t., ref Denham 1979 (Ref. 4)): 80%
Reduction of worm burden (Brugia pahangi [8]; 50L3 (IP), jirds, SC 25mg/kg x1, prepatent phase, necropsy 27-36 days p.t., ref Denham 1979 (Ref. 4)): 100%
Reduction of worm burden (Brugia pahangi [8]; prophylactic, 15Ad (IP), jirds, SC 100mg/kg x1, 2,3,4,5 weeks bef. i., necropsy 35 days pi, ref Denham 1980 (Ref. 1)): 100%
Reduction of worm burden (Brugia pahangi [8]; prophylactic, 15Ad (IP), jirds, SC 100mg/kg x1, 6,9,12 weeks bef. i., necropsy 35 days pi, ref Denham 1980 (Ref. 1)): 92-100%
Reduction of worm burden (Brugia pahangi [8]; prophylactic, 15Ad (IP), jirds, SC 100mg/kg x1, 24 weeks bef. i., necropsy 35 days pi, ref Denham 1980 (Ref. 1)): 9%
Reduction of worm burden (Brugia pahangi [8]; prophylactic, 15Ad (IP), jirds, SC 100mg/kg x1, 2 days bef. i., necropsy 35 days pi, ref Denham 1980 (Ref. 1)): 100%
Reduction of worm burden (Brugia pahangi [8]; prophylactic, 50L3, jirds, SC 25mg/kg x1, 137 days bef. i., necropsy 9-10 weeks p.t., ref Chusattayanond 1984 (Ref. 2)): 8%
Motility Reduction (%) ([9]; 1.25 x 10^-5 M, 24 h): 10%
Motility Reduction (%) ([9]; 1.25 x 10^-5 M, 48 h): 12%
Motility Reduction (%) ([9]; 1.25 x 10^-5 M, 72 h): 33%
Motility Reduction (%) ([9]; 1.25 x 10^-5 M, 96 h): 44%
Motility Reduction (%) ([9]; 1.25 x 10^-5 M, 120 h): 51%
Motility Reduction (%) ([9]; 3.1 x 10^-6 M, 24 h): 4%
Motility Reduction (%) ([9]; 3.1 x 10^-6 M, 48 h): 5%
Motility Reduction (%) ([9]; 3.1 x 10^-6 M, 72 h): 16%
Motility Reduction (%) ([9]; 3.1 x 10^-6 M, 96 h): 38%
Motility Reduction (%) ([9]; 3.1 x 10^-6 M, 120 h): 40%
Motility Reduction (%) ([9]; 5.0 x 10^-5 M, 24 h): 23%
Motility Reduction (%) ([9]; 5.0 x 10^-5 M, 48 h): 22%
Motility Reduction (%) ([9]; 5.0 x 10^-5 M, 72 h): 36%
Motility Reduction (%) ([9]; 5.0 x 10^-5 M, 96 h): 38%
Motility Reduction (%) ([9]; 5.0 x 10^-5 M, 120 h): 54%
Motility Reduction (%) ([9]; 7.8 x 10^-7 M, 24 h): 6%
Motility Reduction (%) ([9]; 7.8 x 10^-7 M, 48 h): 9%
Motility Reduction (%) ([9]; 7.8 x 10^-7 M, 72 h): 13%
Motility Reduction (%) ([9]; 7.8 x 10^-7 M, 96 h): 33%
Motility Reduction (%) ([9]; 7.8 x 10^-7 M, 120 h): 26%
